According to patent publication US20250170156A1, “TOLL-LIKE RECEPTOR LIGANDS” (INIMMUNE CORPORATION, priority 2018, published 2025):

Assays:
primary hPBMCs [1] = assay: Induction of MIP-1β from primary hPBMCs (ELISA); conditions: Homo sapiens
hTLR4 = target: T1, hTLR4 (Homo sapiens, UniProt O00206+Q9Y6Y9); assay: HEK hTLR4 NF-κB driven SEAP reporter assay (hTLR4 activation); format: cell-based; conditions: 18 hours
T1 construct: expressed in transfected cells; host or cells: HEK cells expressing hTLR4 and an NF-κB driven SEAP reporter
Procedure: hTLR4 activation. HEK hTLR4-expressing cells were treated with 100 μM concentration of test compound followed by a 5-fold dilution series. HEK hTLR4-expressing cells also contained an NF-κB driven SEAP reporter and were stimulated with the indicated concentration (FIG. 1A-1C) of the test compound for 18 hours followed by assessment of the cellular supernatant for SEAP by a Quantikine SEAP assay (InvivoGen). The SEAP assay was used to look at secretion of the NF-κB driven alkaline-phosphatase reporter gene in response to TLR4 activation by the compounds and results are interpreted both in terms of potency of the compounds to induce SEAP activation (i.e. potency where a lower EC50 indicates higher potency) and efficacy for receptor activation (i.e. maximal SEAP induction).

hMM6 cells = assay: Induction of MIP-1β cytokine from hMM6 cells (ELISA); format: cell-based; conditions: Homo sapiens, 18 hours
Procedure: Induction of […] cytokine from hMM6 cells. The compounds were next tested in the established MM6 potency assay measuring MIP-1β cytokine production as an output measure of compound potency. Human monocytic cell line, Mono-Mac-6 (hMM6) was obtained from DSMZ (Brunswick, Germany). […] Treatments started at a 100 µM concentration proceeded with a 16-point, 5-fold dilution series. Supernatants were harvested and analyzed for production of MIP-1β via ELISA (R&D systems, catalog #DY271).

mRAW264.7 cells = assay: Induction of MIP-1β cytokine from mRAW264.7 cells (ELISA); format: cell-based; conditions: Mus musculus, 18 hours, read-out: mRaw MIP-1β EC50
Procedure: Induction of MIP-1β cytokine from mRAW264.7 cells. […] Treatments started at 20 μM concentration with a 5-fold serial dilution until 3.2768E-09 μM. Supernatants were harvested and analyzed for production of MIP-1β via ELISA (R& D Systems-cat #DY451).

[2] = Stability of aqueous formulations by reverse-phase-HPLC; format: physicochemical
Procedure: Formulation. The salted compound was accurately weighed into depyrogenated glass vials, and the required volume of aqueous vehicle added to attain the desired concentration. Vials were placed in a sonication bath (sonication bath temperature≤45° C.) to assist solubility and reduce particle size to achieve sterile filtration without significant loss of compound. Once the solution appeared homogeneous, the particle size was periodically monitored by dynamic light scattering until the solution turned clear and the particle size was <200 mn, or the particle size no longer reduced with continued sonication. The formulation was filtered through a 0.22p PVDF membrane filter into a depyrogenated glass vial and the resulting solution quantitated by RP-HPLC.
Aqueous formulations of compounds 1, 2, 3, 4, 5 and 6 were aliquoted into small depyrogenated vials for stability evaluation at temperatures of 2°-8° C., 25° C., and 40° C. This mirrors ICH stability temperature guidelines, but humidity was not controlled. A vial was pulled for each time point/temperature and analyzed by reverse-phase-HPLC (FIGS. 9-14) according to the following schedule starting from 2 weeks to up to 12 months.

[3] = tested on: influenza virus antigen A/Victoria/210/2009-H3N2; assay: Vaccine adjuvant study, murine influenza virus vaccination model; format: in vivo, BALB/c mice; conditions: intramuscular, 0.1, 0.01 or 0.001 μg with 0.2 μg antigen, 14 days after single immunization, 2% glycine
Procedure: Vaccine adjuvant study. Compounds 2, 4, 5 and 7 were evaluated as vaccine adjuvant in a murine influenza virus vaccination model. 7-9 week old BALB/c mice (10 mice per group) were injected intramuscularly in a hind limb with the influenza virus antigen A/Victoria/210/2009-H3N2 (0.2 μg/mouse) with or without 0.1, 0.01 or 0.001 μg of compound 2, 4, 5 or 7 (formulated in 2% glycine). Fourteen days after a single immunization, animals were bled via the submandibular vein and serum was collected to assay for A/Victoria specific antibodies by ELISA assay (FIG. 7).

primary hPBMCs [4] = assay: Induction of RANTES from primary hPBMCs (ELISA); conditions: Homo sapiens

T1 sequence (O00206 24-839): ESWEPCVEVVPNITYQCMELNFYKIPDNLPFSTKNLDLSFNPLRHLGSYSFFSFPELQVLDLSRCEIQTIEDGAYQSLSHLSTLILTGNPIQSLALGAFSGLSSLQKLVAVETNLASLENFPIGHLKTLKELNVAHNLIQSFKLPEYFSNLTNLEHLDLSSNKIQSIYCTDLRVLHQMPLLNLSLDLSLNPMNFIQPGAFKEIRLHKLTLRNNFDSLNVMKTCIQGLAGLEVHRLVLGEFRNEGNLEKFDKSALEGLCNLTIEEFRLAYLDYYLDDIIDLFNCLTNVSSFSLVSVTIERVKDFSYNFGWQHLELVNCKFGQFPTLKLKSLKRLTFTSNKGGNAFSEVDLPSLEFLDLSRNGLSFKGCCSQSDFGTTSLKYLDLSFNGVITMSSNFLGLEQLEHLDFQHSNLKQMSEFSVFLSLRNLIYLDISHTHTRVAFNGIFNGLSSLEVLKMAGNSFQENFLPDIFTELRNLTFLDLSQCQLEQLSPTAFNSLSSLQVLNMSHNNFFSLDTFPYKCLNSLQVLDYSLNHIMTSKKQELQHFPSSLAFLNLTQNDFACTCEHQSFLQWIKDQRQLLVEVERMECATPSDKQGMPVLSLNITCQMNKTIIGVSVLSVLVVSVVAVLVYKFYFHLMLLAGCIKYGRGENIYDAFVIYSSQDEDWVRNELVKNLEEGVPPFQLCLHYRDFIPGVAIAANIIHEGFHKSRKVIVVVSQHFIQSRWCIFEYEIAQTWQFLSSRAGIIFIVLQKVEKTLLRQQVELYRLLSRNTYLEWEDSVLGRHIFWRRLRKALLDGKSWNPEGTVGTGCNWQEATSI
T1 sequence (Q9Y6Y9 17-160 limits assumed): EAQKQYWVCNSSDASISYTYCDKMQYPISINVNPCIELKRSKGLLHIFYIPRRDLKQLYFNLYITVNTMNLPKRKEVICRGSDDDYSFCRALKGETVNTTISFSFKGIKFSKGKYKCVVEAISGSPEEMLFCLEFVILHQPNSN

## CCCCCCCCCCC[C@H](CC(=O)NCCO[C@@H]1OC(CO)[C@@H](OS(=O)(=O)O)[C@H](NC(=O)C[C@@H](CCCCCCCCCCC)OC(=O)CCCCCCCCC)C1NC(=O)C[C@@H](CCCCCCCCCCC)OC(=O)CCCCCCCCC)OC(=O)CCCCCCCCC (stereo partly drawn) [Compound 2, 2-[(R)-3-decanoyloxytetradecanoylamino]ethyl 2,3-di-[(R)-3-decanoyloxytetradecanoylamino]-2,3-dideoxy-4-O-sulfoxy-β-D-allopyranoside]
Primary hPBMCs [1]; read-out: hPBMCs EC50 MIP-1β, Table 3a, Average of Donors 10, 5, 2
  EC50: 0.0963 nM
Primary hPBMCs [1]; read-out: hPBMCs EC50 MIP-1β, Table 3a, Donor 2
  EC50: 0.0755 nM
Primary hPBMCs [1]; read-out: hPBMCs EC50 MIP-1β, Table 3a, Donor 5
  EC50: 0.166 nM
Primary hPBMCs [1]; read-out: hPBMCs EC50 MIP-1β, Table 3a, Donor 10
  EC50: 0.0475 nM
Primary hPBMCs [1]; read-out: hPBMCs EC50 MIP-1β, Table 4b, Average of Donors 22, 5
  EC50: 0.453 nM
Primary hPBMCs [1]; read-out: hPBMCs EC50 MIP-1β, Table 4b, Donor 5
  EC50: 0.119 nM
Primary hPBMCs [1]; read-out: hPBMCs EC50 MIP-1β, Table 4b, Donor 22
  EC50: 0.786 nM
hTLR4; Table 1a
  EC50: 64 nM
hTLR4; Table 1b
  EC50: 41 nM
hMM6 cells
  EC50: 5.89 nM
mRAW264.7 cells
  EC50: 0.0176 nM
[2]; 25° C., formulated in 2% glycine (FIG. 10A)
  time with no degradation: ≥ 12 months
[2]; after 12 months at 40° C., formulated in 2% glycerol (FIG. 10B)
  degradation: less than 10%
[3]
  adjuvant effect on flu-specific IgG2a antibody titers compared to antigen alone: dose dependent adjuvant effect
Primary hPBMCs [4]; read-out: hPBMCs EC50 RANTES, Table 3a, Average of Donors 10, 5, 2
  EC50: 0.243 nM
Primary hPBMCs [4]; read-out: hPBMCs EC50 RANTES, Table 3a, Donor 2
  EC50: 0.38 nM
Primary hPBMCs [4]; read-out: hPBMCs EC50 RANTES, Table 3a, Donor 5
  EC50: 0.285 nM
Primary hPBMCs [4]; read-out: hPBMCs EC50 RANTES, Table 3a, Donor 10
  EC50: 0.0642 nM
Primary hPBMCs [4]; read-out: hPBMCs EC50 RANTES, Table 4b, Average of Donors 22, 5
  EC50: 0.423 nM
Primary hPBMCs [4]; read-out: hPBMCs EC50 RANTES, Table 4b, Donor 5
  EC50: 0.238 nM
Primary hPBMCs [4]; read-out: hPBMCs EC50 RANTES, Table 4b, Donor 22
  EC50: 0.609 nM
